{
  "source": "patent US20250241586A1",
  "about": "“Bioavailability and bioequivalence through intrinsic activity and KD measurements, in vivo, in humans” (priority 2024, published 2025)",
  "key": {"benzodiazepine receptors": {"tested_on": "benzodiazepine receptors", "assay": "Sleep time in human male volunteers; in vivo KD from reciprocals plot", "conditions": "for A Free drug**: free drug quantity crossing the blood brain barrier", "protocol": "Drug action is measured by the following parameters all measured in vivo in living animals/humans. • A) Onset time and threshold dose/concentration (minimum dose/concentration to initiate the effect,) these indicate the potency of the drug. • B) Intrinsic Activity or the maximum possible effect, • C) Dissociation constant. Its reciprocal measures the affinity of the drug for the receptor. The above named, parameters have been measured as stated below:\nThe literature also notes that there could be huge differences in in vivo and in vitro values and in such cases in vivo values are to be taken, if available (1). […] A point in this regard is that many drugs act on multiple receptor systems and in such cases the response is to be chosen such that only one receptor system is involved. […] The assumption is valid since the amount of bound drug is negligible compared to the total amount of drug at receptor and may be neglected. […] Alprazolam was administered to human male volunteers with sound health, of average weight and having normal creatinine clearance in the doses of 4 mcg/kg, 6 mcg/kg and 8 mcg/kg, and onset and sleep times noted. • The amount of free drug crossing the blood brain barrier was obtained."}, "[1]": {"target": "K+ channels of the beta cells of the pancreas (Homo sapiens, UniProt Q09428)", "sequence (Q09428 whole entry)": "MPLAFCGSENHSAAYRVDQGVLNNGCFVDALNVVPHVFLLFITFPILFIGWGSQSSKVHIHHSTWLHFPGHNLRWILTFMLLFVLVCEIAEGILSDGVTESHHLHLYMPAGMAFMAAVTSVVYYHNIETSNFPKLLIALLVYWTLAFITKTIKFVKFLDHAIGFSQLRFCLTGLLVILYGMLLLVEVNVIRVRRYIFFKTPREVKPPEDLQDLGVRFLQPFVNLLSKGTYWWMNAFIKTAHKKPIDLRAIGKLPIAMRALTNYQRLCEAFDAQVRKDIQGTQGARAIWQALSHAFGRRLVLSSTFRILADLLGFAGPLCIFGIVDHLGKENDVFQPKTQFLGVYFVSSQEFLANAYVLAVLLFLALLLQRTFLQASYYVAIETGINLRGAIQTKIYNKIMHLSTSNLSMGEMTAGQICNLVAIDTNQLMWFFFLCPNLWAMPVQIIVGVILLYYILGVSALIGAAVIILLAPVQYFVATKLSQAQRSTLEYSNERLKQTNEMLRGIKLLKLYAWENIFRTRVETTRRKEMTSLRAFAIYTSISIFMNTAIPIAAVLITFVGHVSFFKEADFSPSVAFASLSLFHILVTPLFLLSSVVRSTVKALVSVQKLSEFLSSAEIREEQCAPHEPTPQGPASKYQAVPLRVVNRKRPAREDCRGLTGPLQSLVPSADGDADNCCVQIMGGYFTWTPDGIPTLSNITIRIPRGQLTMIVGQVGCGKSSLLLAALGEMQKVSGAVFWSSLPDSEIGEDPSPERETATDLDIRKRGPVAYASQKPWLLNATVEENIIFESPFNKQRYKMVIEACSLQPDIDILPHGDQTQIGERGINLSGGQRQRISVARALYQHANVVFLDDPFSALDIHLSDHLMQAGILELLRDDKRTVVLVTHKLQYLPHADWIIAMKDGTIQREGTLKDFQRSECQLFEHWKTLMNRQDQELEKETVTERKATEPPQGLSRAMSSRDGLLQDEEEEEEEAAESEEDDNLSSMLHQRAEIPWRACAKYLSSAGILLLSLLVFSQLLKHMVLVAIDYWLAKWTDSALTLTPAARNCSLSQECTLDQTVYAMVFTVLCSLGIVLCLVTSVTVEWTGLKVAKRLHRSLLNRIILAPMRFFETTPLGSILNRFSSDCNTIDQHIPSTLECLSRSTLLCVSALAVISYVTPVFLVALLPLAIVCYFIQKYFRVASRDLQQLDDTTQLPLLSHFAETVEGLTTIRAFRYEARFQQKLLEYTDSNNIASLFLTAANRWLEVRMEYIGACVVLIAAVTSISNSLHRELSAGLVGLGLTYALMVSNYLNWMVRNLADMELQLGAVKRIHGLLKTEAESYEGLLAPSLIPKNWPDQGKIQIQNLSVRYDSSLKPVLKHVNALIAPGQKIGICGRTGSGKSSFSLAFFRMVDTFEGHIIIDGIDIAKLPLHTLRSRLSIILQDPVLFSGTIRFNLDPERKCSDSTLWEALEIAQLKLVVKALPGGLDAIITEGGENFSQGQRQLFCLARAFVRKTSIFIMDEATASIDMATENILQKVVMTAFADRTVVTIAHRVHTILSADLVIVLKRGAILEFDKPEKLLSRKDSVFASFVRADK", "sequence (Q14654 whole entry partner)": "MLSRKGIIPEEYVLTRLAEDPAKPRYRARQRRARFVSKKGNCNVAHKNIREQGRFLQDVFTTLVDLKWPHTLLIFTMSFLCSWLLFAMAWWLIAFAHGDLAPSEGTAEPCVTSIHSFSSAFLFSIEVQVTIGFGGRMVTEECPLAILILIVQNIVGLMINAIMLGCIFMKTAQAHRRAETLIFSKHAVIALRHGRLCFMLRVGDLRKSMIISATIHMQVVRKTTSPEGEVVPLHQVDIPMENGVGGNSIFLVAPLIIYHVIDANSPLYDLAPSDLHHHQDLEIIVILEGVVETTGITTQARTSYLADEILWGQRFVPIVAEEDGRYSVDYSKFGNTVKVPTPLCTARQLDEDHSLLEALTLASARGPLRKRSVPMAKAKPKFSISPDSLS", "conditions": "for KD: in vivo in humans, from slope of 1/fractional response vs 1/A plot"}, "[2]": {"conditions": "in vitro and cell culture; read-out: KD literature values; cited from earlier work"}},
  "note": "Where two headings read alike, the source gives them in different places.",
  "data": [
    {"smiles": "Cc1nnc2n1-c1ccc(Cl)cc1C(c1ccccc1)=NC2", "note": "[Alprazolam, alprazolam]", "values": [
      {"measurement": "1/A", "setting": "benzodiazepine receptors; alprazolam dose 4 Mcg/kg", "result": 225.8},
      {"measurement": "1/Fractional response", "setting": "benzodiazepine receptors; alprazolam dose 4 Mcg/kg", "result": 3.8},
      {"measurement": "Response sleep time", "setting": "benzodiazepine receptors; alprazolam dose 4 Mcg/kg", "result": 63, "unit": "min"},
      {"measurement": "A Free drug**", "setting": "benzodiazepine receptors; alprazolam dose 4 Mcg/kg", "result": 0.0044, "unit": "Mcg/ml"},
      {"measurement": "1/A", "setting": "benzodiazepine receptors; alprazolam dose 6 Mcg/kg", "result": 151.4},
      {"measurement": "1/Fractional response", "setting": "benzodiazepine receptors; alprazolam dose 6 Mcg/kg", "result": 2.4},
      {"measurement": "Response sleep time", "setting": "benzodiazepine receptors; alprazolam dose 6 Mcg/kg", "result": 100, "unit": "min"},
      {"measurement": "A Free drug**", "setting": "benzodiazepine receptors; alprazolam dose 6 Mcg/kg", "result": 0.0066, "unit": "Mcg/ml"},
      {"measurement": "1/A", "setting": "benzodiazepine receptors; alprazolam dose 8 Mcg/kg", "result": 49.8},
      {"measurement": "1/Fractional response", "setting": "benzodiazepine receptors; alprazolam dose 8 Mcg/kg", "result": 1.0},
      {"measurement": "Response sleep time", "setting": "benzodiazepine receptors; alprazolam dose 8 Mcg/kg", "result": 241, "unit": "min"},
      {"measurement": "A Free drug**", "setting": "benzodiazepine receptors; alprazolam dose 8 Mcg/kg", "result": 0.0088, "unit": "Mcg/ml"},
      {"measurement": "Threshold dose", "setting": "benzodiazepine receptors; humans", "result": 4, "unit": "mcg/kg bodyweight"},
      {"measurement": "Kd", "setting": "benzodiazepine receptors; in vivo in humans, response sleep time, free drug crossing the blood brain barrier, slope of reciprocals plot", "result": 50.8, "unit": "nM"}
    ]},
    {"smiles": "Cc1cnc(C(=O)NCCc2ccc(S(=O)(=O)NC(=O)NC3CCCCC3)cc2)cn1", "note": "[Glipizide, glipizide]", "values": [
      {"measurement": "KD", "setting": "[1]", "result": "KD = 8.98 nM"},
      {"measurement": "KD", "setting": "[1]; listed as glipizide", "result": 8.98, "unit": "nM"},
      {"measurement": "Kd", "setting": "[2]", "result": "~10", "unit": "nM"}
    ]},
    {"smiles": "CCC1=C(C)CN(C(=O)NCCc2ccc(S(=O)(=O)NC(=O)N[C@H]3CC[C@H](C)CC3)cc2)C1=O", "note": "[Glimepride, glimepride]", "values": [
      {"measurement": "1/Fractional response", "setting": "[1]; glimepride dose 5 Mcg/kg", "result": 17.24},
      {"measurement": "Response AUC reduction", "setting": "[1]; glimepride dose 5 Mcg/kg", "result": 30, "unit": "mg·h/dL"},
      {"measurement": "1/Fractional response", "setting": "[1]; glimepride dose 10 Mcg/kg", "result": 4.48},
      {"measurement": "Response AUC reduction", "setting": "[1]; glimepride dose 10 Mcg/kg", "result": 115, "unit": "mg·h/dL"},
      {"measurement": "1/Fractional response", "setting": "[1]; glimepride dose 20 Mcg/kg", "result": 1.0},
      {"measurement": "Response AUC reduction", "setting": "[1]; glimepride dose 20 Mcg/kg", "result": 514, "unit": "mg·h/dL"},
      {"measurement": "KD", "setting": "[1]", "result": "KD = 2.018 nM"},
      {"measurement": "KD", "setting": "[1]; listed as glimepride", "result": 2.0, "unit": "nM"},
      {"measurement": "Threshold dose", "setting": "[1]; point of inflection of log dose response curve, humans", "result": 5, "unit": "mcg/kg body weight"}
    ]}
  ]
}
